Source: PubChem BioAssay AID179 (DTP/NCI, 2004)
Active and inactive are the calls of the source.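 How the source made its calls: active means compounds giving half or more protection of infected cells from virus-caused growth loss, again on retest; inactive means the rest.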

System: CEM cells HIV-1 protection, formazan growth assay
Test: NCI AIDS Antiviral Assay
Conditions: for IC50: measured here: growth of uninfected CEM cells
Summary of the method: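 Soluble formazan readout of cell growth; CEM cells ± HIV-1; 5 drug concs. ≥50% protection → retest; ≥50% again = moderately active; reproducible 100% = confirmed active.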

SMILES | EC50 | IC50 | outcome
CCOc1ccccc1N=Nc1ccc2oc(=O)c(C(=O)Nc3cccc(C)c3)cc2c1 | > 43.7 µM | > 43.7 µM | –
CCCCN=Cc1c(O)c(O)c(C(C)C)c2cc(C)c(-c3c(C)cc4c(C(C)C)c(O)c(O)c(C=NCCCC)c4c3O)c(O)c12 | – | – | inactive
Cc1c2ccccc2nc(CN2CCOCC2)[n+]1[O-] | > 200 µM | > 200 µM | –
C=CCNC(=O)N(CCC)CCCCC(NC(C)=O)C(=O)NCc1ccccc1 (stereo unspecified) | > 89.1 µM | > 89.1 µM | –
Cc1ccccc1NC(=O)C1C(=O)N(c2ccccc2C)C(=O)/C1=N\NC(N)=O (stereo unspecified) | > 13.2 µM | > 13.2 µM | –
CC1=C(C)C2(C#N)C(=O)N3C(=NC(c4ccco4)NC3c3ccco3)C2(C#N)C(c2ccco2)N1 (stereo unspecified) | > 200 µM | > 200 µM | –
CC(=O)O[C@H]1C#C/C=C\C#CC[C@@H]2C(=O)N[C@@H]12 | > 20 µM | 1.02 µM | –
O=C(O)/C=C\C(=O)Nc1ccc(S(=O)(=O)c2ccc(NC(=O)/C=C\C(=O)O)cc2)cc1 | > 562 µM | > 562 µM | –
CCCCNC(=O)C1C(=O)N(CCCC)C(=O)/C1=N\N (stereo unspecified) | > 25.7 µM | > 25.7 µM | –
CC(=O)N1C(=O)C(=O)c2ccccc21 | > 200 µM | > 200 µM | –
Cc1ccc(S(=O)(=O)N/N=C(/CC(=O)c2c(C)n([O-])c3ccccc3[n+]2=O)C(=O)Nc2ccccc2C)cc1 | > 33.1 µM | > 33.1 µM | –
CC1=C(C(=O)CC(=O)C(=O)Nc2ccccc2)Sc2ccccc2N1 | > 178 µM | > 178 µM | –
O=C(O)CCCCCCC[C@@H]1S[C@H]1CCCCCCO | – | – | inactive
COC(=O)C1(C2CCOC2=O)NCCc2c1[nH]c1ccccc21 (stereo unspecified) | > 245 µM | 141 µM | –
NCCCCN(CCCN)C(=O)c1ccccc1 | – | – | inactive
Cc1cccc(C)c1NC(=O)C(C#N)C1=C(Cl)C(=O)c2ccccc2C1=O (stereo unspecified) | > 26.3 µM | 8.71 µM | –
CC1=NN(c2ccccc2)C(=O)C1N=Nc1ccc(S(=O)(=O)Nc2occ(C)c2C)cc1 (stereo unspecified) | – | – | inactive
COc1cc2oc3cc(OC)c(OC)c(CC=C(C)C)c3c(=O)c2c(O)c1CC=C(C)C | > 30.9 µM | > 30.9 µM | –
Cc1nc2c(=O)[nH]cnc2o1 | > 575 µM | > 575 µM | –
CCOC(=O)c1cc2c(nc1N)C(=O)CCC2 | > 200 µM | 112 µM | –
CCOC(=O)c1nc2ccc(C(F)(F)F)cc2nc1NCc1ccc(OC)c(OC)c1 | > 200 µM | 85.1 µM | –
CC(=O)N=C1N(/C=C2\C(=O)Oc3ccccc3C2=O)C(=O)/C(=C/c2ccc3c(c2)OCO3)N1C | > 200 µM | > 200 µM | –

SMILES | EC50 | IC50 | outcome
CC(=O)O[C@H]1CC[C@@]2(C)C(CC[C@]3(C)C2CC[C@]2(C)Oc4c(C)cc(O)cc4C[C@@H]23)C1(C)C (stereo partly specified) | – | – | inactive
CC(=O)OCC1(C)C(OC(C)=O)CCC2(C)C(CC(OC(C)=O)C3=CCOC3=O)C(O)(CO)CCC12 (stereo unspecified) | – | – | inactive
O=C(CN1CCC(O)(c2ccc(F)cc2)CC1)N1CCN(C/C=C/c2ccccc2)CC1 | > 200 µM | 28.8 µM | –
CCn1c(=O)ccc2ccc(N(CCO)CCO)nc21 | > 200 µM | 151 µM | –
CCCC1(C)OC(=O)C(c2ccccc2)O1 (stereo unspecified) | > 200 µM | > 200 µM | –
CC1(C)OC1COc1c2occc2cc2ccc(=O)oc12 (stereo unspecified) | > 155 µM | 74.1 µM | –
Cc1nn(C(=O)c2ccccc2O)c2c1C(c1ccccc1O)SC(N)=N2 (stereo unspecified) | > 2 µM | 0.933 µM | –
N/C(CCCC/C(N)=N/O)=N\O | > 200 µM | > 200 µM | –
NC(=S)NNc1c([N+](=O)[O-])cnn(-c2ccccc2)c1=O | > 58.9 µM | 0.324 µM | –
Clc1c(Cl)c(Cl)c2c(nnn2C2CCCO2)c1Cl (stereo unspecified) | > 200 µM | 33.1 µM | –
CCCCCCCCCCCC(=O)C1=C(O)C(O)CCC1=O (stereo unspecified) | – | – | inactive
O=C(/C=C/c1ccc[nH]1)c1ccccc1 | > 347 µM | 120 µM | –
O=C(O)c1ccc(CS(=O)c2ccccc2C(=O)O)c([N+](=O)[O-])c1 (stereo unspecified) | > 708 µM | > 708 µM | –
CCn1cc(C(=O)O)c(=O)c2ccc(-c3ccncc3)cc21 | – | – | inactive
COc1c2ccoc2nc2c(OC)c(OCC(O)C(C)(C)O)ccc12 (stereo unspecified) | > 513 µM | > 513 µM | –
O=C(Nc1ccc(C2=NCCN2)cc1)c1ccc(F)c(C(=O)Nc2ccc(C3=NCCN3)cc2)c1 | > 200 µM | > 200 µM | –
CC1(C)OC(=O)C=C[C@@]2(C)C1CC(=O)C1(C)C2CCC2(C)C(c3ccoc3)OC(=O)[C@H]3O[C@]321 (stereo partly specified) | > 200 µM | > 200 µM | –
COc1ccc(-c2c(C3=NCCN3)nnn2-c2ccc(Cl)cc2)cc1 | > 126 µM | 91.2 µM | –
Nc1nsc2nc3ccccc3cc12 | – | – | inactive
CCOC(=O)CCn1[nH]c(=O)c(Cl)c(Cl)c1=O | – | – | inactive
COC(=O)c1cc(=O)c2scc(C)[n+]2[nH]1 | > 955 µM | > 955 µM | –
